Reference: patent US20230407243A1, “GENETIC PLATFORM TO INVESTIGATE THE FUNCTIONS OF BACTERIAL DRUG EFFLUX PUMPS” (priority 2022, published 2023)

Tests used:
Test in all cases: MIC susceptibility profiling, efflux platform
Format in all cases: cell-based, Escherichia coli
EKO-35 araC::acrD = conditions: for Fold change of MICs: EKO-35 araC::acrD compared to EKO-35
Summary of the method: (§1)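 OD600 read-out, background-corrected, after 18 h at 37 °C with shaking. Compounds were tested in duplicate as 2-fold series in MHB II, with DMSO as solvent control. Inoculum was a 1/2000 dilution of an OD600 ~1.0 PBS suspension.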

[1] = test system: EKO-35 araC::mexCD (MexCD from P. aeruginosa); conditions: for Fold change of MICs: EKO-35 araC::mexCD compared to EKO-35
Summary of the method: as §1

EKO-35 araC::mdtEF = conditions: for Fold change of MICs: EKO-35 araC::mdtEF compared to EKO-35
Summary of the method: as §1

EKO-35 araC::acrBD408A = conditions: for Fold change of MICs: EKO-35 araC::acrBD408A compared to EKO-35
Summary of the method: as §1

EKO-35 araC::emrKY = conditions: for Fold change of MICs: EKO-35 araC::emrKY compared to EKO-35
Summary of the method: as §1

EKO-35 araC::acrB = conditions: for Fold change of MICs: EKO-35 araC::acrB compared to EKO-35
Summary of the method: as §1

EKO-35 araC::mdtBC = conditions: for Fold change of MICs: EKO-35 araC::mdtBC compared to EKO-35
Summary of the method: as §1

[2] = Table 13A, non-porinated, technical duplicate
[3] = Table 13B, non-porinated, technical duplicate

Compound	Fold change of MICs (EKO-35 araC::acrD) [fold]	Minimum Inhibitory Concentration, EKO-35 araC::acrD (EKO-35 araC::acrD; [2]) [µg/mL]	Fold change of MICs [1] [fold]	Minimum Inhibitory Concentration, EKO-35 araC::mexCD [1, 3] [µg/mL]	Fold change of MICs (EKO-35 araC::mdtEF) [fold]	Minimum Inhibitory Concentration, EKO-35 araC::mdtEF (EKO-35 araC::mdtEF; [2]) [µg/mL]	Fold change of MICs (EKO-35 araC::acrBD408A) [fold]	Minimum Inhibitory Concentration, EKO-35 araC::acrBD408A (EKO-35 araC::acrBD408A; [3]) [µg/mL]	Fold change of MICs (EKO-35 araC::emrKY) [fold]	Minimum Inhibitory Concentration, EKO-35 araC::emrKY (EKO-35 araC::emrKY; [3]) [µg/mL]	Fold change of MICs (EKO-35 araC::acrB) [fold]	Minimum Inhibitory Concentration, EKO-35 araC::acrB (EKO-35 araC::acrB; [2]) [µg/mL]	Fold change of MICs (EKO-35 araC::mdtBC) [fold]	Minimum Inhibitory Concentration, EKO-35 araC::mdtBC (EKO-35 araC::mdtBC; [3]) [µg/mL]	also measured
CC(C)(C)c1cc(C(=O)NNC(=O)Nc2cccc3ccccc23)n(Cc2ccc(F)cc2)n1 [compound 4]	16	320	16	320	16	320	1	20	1	20	16	320	1	20	
O=c1oc(-c2ccccc2Cl)nn1-c1ccc(C(F)(F)F)cn1 [compound 5]	2	40	16	320	16	320	1	20	1	20	16	320	1	10	
O=C(Nc1ccccc1)Nc1ccc(Br)c(C(F)(F)F)c1 [compound 6]	1	320	1	320	1	320	1	320	1	320	1	320	1	320	
O=C(Nc1ccc(C(F)(F)F)cc1)Nc1ccc(C(F)(F)F)cc1 [compound 7]	1	320	1	320	1	320	1	320	1	320	1	320	1	320	
N#CC(C#N)=NNc1ccc(-n2ccc(C(F)(F)F)n2)cc1 [compound 8]	1	160	1	320	1	320	1	320	1	320		640	1	320	
COC(=O)c1sc(N2CCCC2)c(C#N)c1-c1cccs1 [compound 10]	1	160	1	160	1	160	1	160	1	160	1	160	1	160	
O=[N+]([O-])c1ccc2c(c1)C(=NO)c1cc([N+](=O)[O-])ccc1-2 [compound 11]	8	0.625	16	1.25	128	10	1	0.078	1	0.078		320	1	0.078	
CC(C)c1ccc(C=C(C#N)c2nc3ccccc3[nH]2)cc1 [compound 12]	1	320	1	320	1	320	1	320	1	320	1	320	1	320	
O=C(NC(=O)N1CCc2c([nH]c3ccccc23)C1C(F)(F)F)c1ccccc1 (stereo not shown) [compound 13]	8	320	8	320	8	320	1	40	1	40	8	320	1	40	
N#CC(=NNc1ccc(F)c(Cl)c1)C(=O)c1ccc(Cl)cc1 [compound 15]	1	320	1	320	1	320	1	320	1	320	1	320	1	320	
Nc1ccccc1SCc1nc(-c2ccc(Cl)cc2)no1 [compound 16]	1	10	16	160	16	160	1	10	1	5	32	320	1	5	
COc1cccc2c1C(=O)c1c(O)c3c(c(O)c1C2=O)C[C@@](O)(C(C)=O)C[C@@H]3O[C@H]1C[C@H](N)[C@H](O)[C@H](C)O1 [daunorubicin]	2		32		64		1		1		64		1		MIC (EKO-35 araC::acrD; Escherichia coli, Table 13A, non-porinated, technical duplicate, read-out: Minimum Inhibitory Concentration, EKO-35 araC::acrD): 6.25 µg/mL; MIC ([1]; Table 13B, non-porinated, technical duplicate, read-out: Minimum Inhibitory Concentration, EKO-35 araC::mexCD): 100 µg/mL; MIC (EKO-35 araC::mdtEF; Escherichia coli, Table 13A, non-porinated, technical duplicate, read-out: Minimum Inhibitory Concentration, EKO-35 araC::mdtEF): 200 µg/mL; MIC (EKO-35 araC::acrBD408A; Escherichia coli, Table 13B, non-porinated, technical duplicate, read-out: Minimum Inhibitory Concentration, EKO-35 araC::acrBD408A): 3.12 µg/mL; MIC (EKO-35 araC::emrKY; Escherichia coli, Table 13B, non-porinated, technical duplicate, read-out: Minimum Inhibitory Concentration, EKO-35 araC::emrKY): 3.12 µg/mL; MIC (EKO-35 araC::acrB; Escherichia coli, Table 13A, non-porinated, technical duplicate, read-out: Minimum Inhibitory Concentration, EKO-35 araC::acrB): 200 µg/mL; MIC (EKO-35 araC::mdtBC; Escherichia coli, Table 13B, non-porinated, technical duplicate, read-out: Minimum Inhibitory Concentration, EKO-35 araC::mdtBC): 1.56 µg/mL
